These results are taken from patent publication US5840758A, “Oxime derivatives of fenamates as inhibitors of prostaglandin biosynthesis” (Abbott Laboratories, priority 1996, dated 1998).

The target of one assay is T1, human recombinant PGHS-1 (Homo sapiens, UniProt P23219).
T1 construct: made in house; host or cells: baculovirus/Sf9 insect cells (microsomes)
In words: Inhibition of prostaglandin biosynthesis (PGE2 by EIA), recombinant human PGHS-1 enzyme assay. The format is biochemical. The note with it: 60 min preincubation, 10 μM arachidonic acid. As for the experimental part:
(§1) Inhibition of prostaglandin biosynthesis was evaluated in recombinant human PGHS-1 and PGHS-2 enzyme assays. Representative compounds dissolved in DMSO (3.3% v/v) were preincubated with microsomes from recombinant human PGHS-1 or PGHS-2 expressed in the baculovirus/Sf9 cell system (Gierse, J. K., Hauser, S. D., Creely, D. P., Koboldt, C., Rangwala, S., H., Isakson, P. C., and Seibert, K. Expression and selective inhibition of the constituitive and inducible forms of cyclooxygenase Biochem J. 1995, 305: 479.), together with the cofactors phenol (2 mM) and hematin (1 μM) for 60 minutes prior to the addition of 10 μM arachidonic acid. The reaction was allowed to run for 2.5 minutes at room temperature prior to quenching with HCl and neutralization with NaOH. PGE2 production in the presence and absence of the drug was determined by EIA analysis. The EIA was conducted in 96 well microtiter plates (Nunc Roskilde, Denmark) and optical density measured using a microplate reader (Vmax, Molecular Devices Corp., Menlo Park, Calif.). EIA reagents for prostaglandin determination were purchased from Perseptive Diagnostics, Cambridge, Mass. PGE2 levels were measured against standards prepared in the same milieu. The immunoassays were conducted as recommended by the manufacturer.

The next assay addresses T2, human recombinant PGHS-2 (Homo sapiens, UniProt P35354).
T2 construct: made in house; host or cells: baculovirus/Sf9 insect cells (microsomes)
T2 sequence (P35354 18-604): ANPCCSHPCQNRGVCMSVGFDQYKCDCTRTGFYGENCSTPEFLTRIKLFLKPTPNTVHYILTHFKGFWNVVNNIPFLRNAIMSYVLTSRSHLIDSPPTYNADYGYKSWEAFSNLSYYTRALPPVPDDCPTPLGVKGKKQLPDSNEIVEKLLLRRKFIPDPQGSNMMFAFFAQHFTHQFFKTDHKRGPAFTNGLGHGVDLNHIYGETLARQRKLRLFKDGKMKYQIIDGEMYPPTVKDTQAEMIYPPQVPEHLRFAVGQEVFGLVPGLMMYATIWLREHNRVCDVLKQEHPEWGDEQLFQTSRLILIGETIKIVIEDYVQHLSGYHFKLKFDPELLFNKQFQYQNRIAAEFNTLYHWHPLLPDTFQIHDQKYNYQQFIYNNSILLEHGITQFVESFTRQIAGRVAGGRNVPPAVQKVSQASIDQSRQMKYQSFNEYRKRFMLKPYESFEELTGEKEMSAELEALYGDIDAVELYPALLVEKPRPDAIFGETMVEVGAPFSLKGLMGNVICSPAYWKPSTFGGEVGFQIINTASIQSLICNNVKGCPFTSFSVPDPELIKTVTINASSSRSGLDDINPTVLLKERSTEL
Briefly: Inhibition of prostaglandin biosynthesis (PGE2 by EIA), recombinant human PGHS-2 enzyme assay. Format: biochemical. The note with it: 60 min preincubation, 10 μM arachidonic acid. As for the experimental part:
as §1

Another assay relates to PGHS-1. Particulars: in words, from literature; cited from earlier work.
Another assay relates to PGHS-2. Particulars: in words, from literature; cited from earlier work.

T1 sequence (P23219 24-599): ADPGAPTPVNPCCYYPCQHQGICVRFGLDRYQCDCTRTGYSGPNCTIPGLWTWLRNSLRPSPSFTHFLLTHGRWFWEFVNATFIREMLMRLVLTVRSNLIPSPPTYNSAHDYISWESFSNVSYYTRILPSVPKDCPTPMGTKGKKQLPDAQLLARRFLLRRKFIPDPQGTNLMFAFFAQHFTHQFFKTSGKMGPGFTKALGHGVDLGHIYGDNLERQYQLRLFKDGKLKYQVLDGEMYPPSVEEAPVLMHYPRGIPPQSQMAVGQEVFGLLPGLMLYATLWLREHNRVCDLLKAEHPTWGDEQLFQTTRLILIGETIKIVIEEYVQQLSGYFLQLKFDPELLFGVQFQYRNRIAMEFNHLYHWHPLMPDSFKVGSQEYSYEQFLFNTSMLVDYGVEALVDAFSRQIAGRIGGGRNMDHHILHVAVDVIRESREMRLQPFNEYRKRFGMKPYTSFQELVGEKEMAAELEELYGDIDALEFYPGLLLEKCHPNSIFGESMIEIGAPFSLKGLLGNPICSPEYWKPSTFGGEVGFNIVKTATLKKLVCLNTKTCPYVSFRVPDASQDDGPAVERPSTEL

As a reminder, the IC50 is the midpoint of a concentration-inhibition curve. On to `Cc1ccc(Cl)c(Nc2ccccc2C=NOCC(=O)O)c1Cl` [Example 1, 2-[(2,6-dichloro-3-methylphenyl)amino]benzaldehyde-O-carboxymethyl oxime], for which the results for the IC50 on human recombinant PGHS-1 and at human recombinant PGHS-2 were 850 nM and 22 nM, respectively.
For the compound `Cc1ccc(Cl)c(Nc2ccccc2C(=O)O)c1Cl` [Meclofenamic acid], the “inhibition of PGHS-1” value with PGHS-1 was “inhibit both PGHS-1 and PGHS-2”. Further, the “inhibition of PGHS-2” value in the assay on PGHS-2 was “inhibit both PGHS-1 and PGHS-2”.
For `CC(C)Cc1ccc(C(C)C(=O)O)cc1` (centres unmarked) [ibuprofen], the “inhibition of PGHS-1” value in the assay on PGHS-1 is listed as “inhibit both isozymes”. Also, in the assay on PGHS-2, the “inhibition of PGHS-2” value was “inhibit both isozymes”.
`COc1ccc2cc([C@H](C)C(=O)O)ccc2c1` [naproxen]: in the assay with PGHS-1, the “inhibition of PGHS-1” value is “inhibit both isozymes”. Besides, the “inhibition of PGHS-2” value in the assay on PGHS-2 is on record as “inhibit both isozymes”.
